Several values for one entry are separate records, joined by “and”; a condition that tells them apart may be missing. Equal values may be shown once.
Test: In vitro release
Type: physicochemical
Settings: for 30G x 6 mm - Cumulative Dex Release / 23G x 6 mm - Cumulative Dex Release: single samples and AVG; for Dex Release: Fig 5h implants, 1.5 ml FBS; for Cumulative Dex (%) / Cumulative Dex-TEG (%) / Cumulative Dex-TEG-Dex (%): Fig 4d pellet
Procedure: Pellets for release studies. Crystalline drug dimers were weighed on a stainless steel coupon. In the case of blends with a second drug, the dimer and drug were mixed at the desired mass ratio with mortar and pestle prior to weighing. Samples were transferred to a heat press (Carver Laboratory Press). A PTFE mold containing an array of 1 mm diameter holes of 1 mm depth was placed on top of the melt, and pressure was applied for 2 min. Molded pellets were cooled to room temperature and punched out of the mold, yielding a pellet of 1 mm height × 1 mm diameter.
Release studies were carried out using different media, including PBS (pH 7.4, Gibco), 100% FBS (Sigma, F1051), 1% FBS in PBS pH 7.4, and 3.6% BSA (Sigma, A7906) in PBS (pH 7.4, Gibco). […] Samples were incubated in release medium at 37 °C under constant agitation on an orbital shaker at 115 rpm (VWR). At designated timepoints, sampling was performed by complete removal of medium and replenishment with fresh buffer. Sampling timepoints included 24 h and then every 3–4 days thereafter. For PBS release conditions, samples were analyzed directly. For samples with protein (100% FBS, 1% FBS, 3.6% BSA), protein was precipitated by addition of acetonitrile. Samples were vortexed and centrifuged to separate extracted drug from precipitated protein. The supernatant was then analyzed for drug concentration by HPLC.

With `C[C@@H]1C[C@H]2[C@@H]3CCC4=CC(=O)C=C[C@]4(C)[C@@]3(F)[C@@H](O)C[C@]2(C)[C@@]1(O)C(=O)COC(=O)OCCOCCOCCOC(=O)OCC(=O)[C@@]1(O)[C@H](C)C[C@H]2[C@@H]3CCC4=CC(=O)C=C[C@]4(C)[C@@]3(F)[C@@H](O)C[C@@]21C` [Dex-TEG-Dex] the “30G x 6 mm - Cumulative Dex Release” value (Fig 4e, Day 24, mean) was 14632.22 ng, the “23G x 6 mm - Cumulative Dex Release, %” value (Fig 4e, Day 28, AVG) was 5.83% and the “30G x 6 mm - Cumulative Dex Release, %” value (Fig 4e, Day 28, AVG) was 26.07%. The “23G x 6 mm - Cumulative Dex Release” value (Fig 4e, Day 28) was 22513.24 ng and 19328.26 ng and 15619.66 ng and 21703.43 ng and 22527.37 ng and 19996.59 ng, the “30G x 6 mm - Cumulative Dex Release” value (Fig 4e, Day 28) was 17080.41 ng and 16856.88 ng and 15635.65 ng and 15175.33 ng and 17376.10 ng and the “23G x 6 mm - Cumulative Dex Release” value (Fig 4e, Day 28, mean) was 20281.43 ng. For the same compound, the “30G x 6 mm - Cumulative Dex Release” value (Fig 4e, Day 28, mean) was 16424.87 ng, the “Cumulative Dex Release” value (Fig 5e extruded rods, 4.4 ml PBS, Day 3, samples and avg) was 1097.22 ng and 914.62 ng and 1001.18 ng and the “Cumulative Dex Release” value (Fig 5e extruded rods, 4.4 ml PBS, Day 3, samples and avg, mean) was 1004.34 ng. The “Cumulative Dex Release” value (Fig 5e extruded rods, 4.4 ml PBS, Day 7, samples and avg) was 2505.34 ng and 2182.65 ng and 1890.99 ng, the “Cumulative Dex Release” value (Fig 5e extruded rods, 4.4 ml PBS, Day 7, samples and avg, mean) was 2192.99 ng and the “Cumulative Dex Release” value (Fig 5e extruded rods, 4.4 ml PBS, Day 10, samples and avg) was 3527.54 ng and 3009.52 ng and 2686.37 ng. For the same compound, the “Cumulative Dex Release” value (Fig 5e extruded rods, 4.4 ml PBS, Day 10, samples and avg, mean) was 3074.48 ng, the “Cumulative Dex Release” value (Fig 5e extruded rods, 4.4 ml PBS, Day 14, samples and avg) was 4834.31 ng and 3361.72 ng and 3917.67 ng and the “Cumulative Dex Release” value (Fig 5e extruded rods, 4.4 ml PBS, Day 14, samples and avg, mean) was 4037.90 ng. For the same compound, the “Cumulative Dex Release (%)” value (Fig 5e extruded rods, PBS, Day 3, avg) was 5.68%, the “Cumulative Dex Release (%)” value (Fig 5e extruded rods, PBS, Day 7, avg) was 12.40% and the “Cumulative Dex Release (%)” value (Fig 5e extruded rods, PBS, Day 10, avg) was 17.39%. For the same compound, the “Cumulative Dex Release (%)” value (Fig 5e extruded rods, PBS, Day 14, avg) was 22.83%, the “Cumulative Dex Release” value (Fig 5g pellet 1x1 mm, 2 ml FBS, Day 1, samples and avg) was 7893.42 ng and 9312.84 ng and 6181.88 ng and the “Cumulative Dex Release” value (Fig 5g pellet 1x1 mm, 2 ml FBS, Day 1, samples and avg, mean) was 7796.05 ng. For the same compound, the “Cumulative Dex Release” value (Fig 5g pellet 1x1 mm, 2 ml FBS, Day 4, samples and avg) was 30339.61 ng and 45405.22 ng and 23002.55 ng, the “Cumulative Dex Release” value (Fig 5g pellet 1x1 mm, 2 ml FBS, Day 4, samples and avg, mean) was 32915.79 ng and the “Cumulative Dex Release” value (Fig 5g pellet 1x1 mm, 2 ml FBS, Day 7, samples and avg (Dex-TEG-Dex)) was 54914.64 ng and 66482.50 ng and 47540.80 ng. For the same compound, the “Cumulative Dex Release” value (Fig 5g pellet 1x1 mm, 2 ml FBS, Day 7, samples and avg (Dex-TEG-Dex), mean) was 56312.65 ng, the “Cumulative Dex Release” value (Fig 5g pellet 1x1 mm, 2 ml FBS, Day 12, samples and avg) was 107363.57 ng and 105953.49 ng and 95651.85 ng and the “Cumulative Dex Release” value (Fig 5g pellet 1x1 mm, 2 ml FBS, Day 12, samples and avg, mean) was 102989.64 ng. The “Cumulative Dex Release” value (Fig 5g pellet 1x1 mm, 2 ml FBS, Day 14, samples and avg (Dex-TEG-Dex)) was 134750.54 ng and 130454.95 ng and 117349.61 ng, the “Cumulative Dex Release” value (Fig 5g pellet 1x1 mm, 2 ml FBS, Day 14, samples and avg (Dex-TEG-Dex), mean) was 127518.37 ng and the “Cumulative Dex Release (%)” value (Fig 5g pellet, FBS, Day 1, avg) was 1.53%. The “Cumulative Dex Release (%)” value (Fig 5g pellet, FBS, Day 4, avg) was 6.45%, the “Cumulative Dex Release (%)” value (Fig 5g pellet, FBS, Day 7, avg (Dex-TEG-Dex)) was 11.03% and the “Cumulative Dex Release (%)” value (Fig 5g pellet, FBS, Day 12, avg) was 20.18%. For the same compound, the “Cumulative Dex Release (%)” value (Fig 5g pellet, FBS, Day 14, avg (Dex-TEG-Dex)) was 24.99%, the “Dex Release” value (Surface Area 0.4 mm2) was 4010.80 ng/day and 4214.70 ng/day and 4298.12 ng/day and the “Dex Release” value (Surface Area 2.23 mm2) was 36784.29 ng/day and 23408.43 ng/day and 28616.37 ng/day. For the same compound, the “Dex Release” value (Surface Area 5.3 mm2) was 79250.12 ng/day and 77804.43 ng/day and 51184.45 ng/day, the “Cumulative Dex (%)” value (3.6% BSA, Day 1) was 0.09% and the “Cumulative Dex-TEG (%)” value (3.6% BSA, Day 1) was 0.00388% and 0.000233% and 0.00% and 0.00648%. The “Cumulative Dex-TEG-Dex (%)” value (3.6% BSA, Day 1) was 0.27% and 0.25% and 0.32% and 0.24% and 0.26% and 0.273%, the “Cumulative Dex (%)” value (3.6% BSA, Day 3) was 0.26% and the “Cumulative Dex-TEG (%)” value (3.6% BSA, Day 3) was 0.0221% and 0.0216% and 0.0328% and 0.0218% and 0.0264% and 0.0252%. The “Cumulative Dex-TEG-Dex (%)” value (3.6% BSA, Day 3) was 0.51% and 0.48% and 0.61% and 0.44% and 0.4979%, the “Cumulative Dex-TEG (%)” value (3.6% BSA, Day 7) was 0.08% and 0.09% and 0.10% and 0.12% and the “Cumulative Dex-TEG-Dex (%)” value (3.6% BSA, Day 7) was 0.69% and 0.68% and 0.90% and 0.62% and 0.66% and 0.7212%. For the same compound, the “Cumulative Dex (%)” value (3.6% BSA, Day 10) was 1.32%, the “Cumulative Dex-TEG (%)” value (3.6% BSA, Day 10) was 0.18% and 0.14% and 0.15% and 0.16% and 0.20% and the “Cumulative Dex-TEG-Dex (%)” value (3.6% BSA, Day 10) was 0.89% and 1.18% and 0.82% and 0.87% and 0.9318%. For the same compound, the “Cumulative Dex (%)” value (3.6% BSA, Day 14) was 1.97%, the “Cumulative Dex-TEG (%)” value (3.6% BSA, Day 14) was 0.28% and 0.21% and 0.25% and 0.22% and the “Cumulative Dex-TEG-Dex (%)” value (3.6% BSA, Day 14) was 1.13% and 1.12% and 1.43% and 0.98% and 1.06% and 1.102%. For the same compound, the “Cumulative Dex-TEG (%)” value (100% FBS, Day 1) was 0.00%, the “Cumulative Dex-TEG-Dex (%)” value (100% FBS, Day 1) was 0.045% and 0.05% and 0.07% and the “Cumulative Dex-TEG (%)” value (100% FBS, Day 3) was 0.02% and 0.0246% and 0.00%. The “Cumulative Dex-TEG-Dex (%)” value (100% FBS, Day 3) was 0.11% and 0.16% and 0.18%, the “Cumulative Dex-TEG (%)” value (100% FBS, Day 7) was 0.06% and 0.0546% and 0.04% and the “Cumulative Dex-TEG-Dex (%)” value (100% FBS, Day 7) was 0.22% and 0.28% and 0.36%. For the same compound, the “Cumulative Dex-TEG (%)” value (100% FBS, Day 10) was 0.0647% and 0.0546% and 0.06%, the “Cumulative Dex-TEG-Dex (%)” value (100% FBS, Day 10) was 0.29% and 0.38% and 0.50% and the “Cumulative Dex-TEG (%)” value (100% FBS, Day 14) was 0.08% and 0.10%. The “Cumulative Dex-TEG-Dex (%)” value (100% FBS, Day 14) was 0.39% and 0.49% and 0.68%, the “Cumulative Dex Release” value (Fig 5d coating, 4 ml PBS, Day 3, samples and avg) was 5791.09 ng and 5024.11 ng and the “Cumulative Dex Release” value (Fig 5d coating, 4 ml PBS, Day 3, samples and avg, mean) was 5535.43 ng. For the same compound, the “Cumulative Dex Release” value (Fig 5d coating, 4 ml PBS, Day 7, samples and avg) was 17637.28 ng and 18646.47 ng and 15578.55 ng, the “Cumulative Dex Release” value (Fig 5d coating, 4 ml PBS, Day 7, samples and avg, mean) was 17287.43 ng and the “Cumulative Dex Release” value (Fig 5d coating, 4 ml PBS, Day 10, samples and avg) was 20320.09 ng and 21014.00 ng and 17829.42 ng. The “Cumulative Dex Release” value (Fig 5d coating, 4 ml PBS, Day 10, samples and avg, mean) was 19721.17 ng, the “Cumulative Dex Release” value (Fig 5d coating, 4 ml PBS, Day 14, samples and avg) was 28452.49 ng and 28863.83 ng and 25840.72 ng and the “Cumulative Dex Release” value (Fig 5d coating, 4 ml PBS, Day 14, samples and avg, mean) was 27719.01 ng. The “Cumulative Dex Release (%)” value (Fig 5d coating, PBS, Day 3, avg) was 0.71%, the “Cumulative Dex Release (%)” value (Fig 5d coating, PBS, Day 7, avg) was 2.21% and the “Cumulative Dex Release (%)” value (Fig 5d coating, PBS, Day 10, avg) was 2.52%. For the same compound, the “Cumulative Dex Release (%)” value (Fig 5d coating, PBS, Day 14, avg) was 3.55%.
